From patent US20200078459A1, “NEAR INFRARED (NIR) PHOTODYNAMIC THERAPY (PDT) IN COMBINATION WITH CHEMOTHERAPY” (Health Research, Inc., priority 2016, published 2020)
Like-named read-outs stand apart in the source and are kept apart here.

Assays:
[1] = tested on: FaDu head and neck cancer xenografts; test: PDT response and antitumor activity in SCID mice bearing FaDu head and neck cancer xenografts; type: in vivo
Experimental: First dose of irinotecan: 1 h post-PDT treatment.
Human head and neck cancer xenografts (FaDu and H&N 85-1)
The treatment was initiated 7-10 post transplantation.

[2] = tested on: non-small cell carcinoma (NSCLC) xenografts; conditions: for antitumor activity of the alone drug: no PDT
Experimental: 3) Tumor transplantation: the xenografts used for antitumor activity were transplanted subcutaneously. The treatment was initiated 7-10 days post transplantation. 4) Tumor measurement: two axes (mm) of tumor (L, longest axis; W, shortest axis) were measured with the aid of a Vernier caliper. Tumor weight (mg) was estimated as a formula tumor weight ½ (L×W2). Tumor measurements were taken after the scabbing healed post PDT and at least three times a week for post therapy and twice a week therefore. 5) Tumor regression: complete tumor regression (CR) was defined as the inability to detect tumor by palpation at the initial site of tumor appearance for more than two months post therapy. […] Partial tumor regression (PR) was defined as ≥50% reduction in initial tumor size. Normally, 5 mice per treatment group were included in these experiment groups and repeated at least twice.
PDT of Subcutaneous Tumors—Tumor bearing mice are injected via the tail vein with HPPH or derivatives at doses that are non-toxic unless exposed to light. For tail vein injections, mice were gently restrained in approved holders and their tails were briefly (less than 1 minute) dipped in warm sterile water (˜40° C.). Photosensitizers are injected in a volume of less than 0.2 mL into the tail vein using a 27-gauge needle.
The photosensitizers, at 24 hours (or the optimal time determined by optical imaging) after administration of HPPH or derivatives, the animals were partially restrained allowing leg movement, in specially designed holders without anesthesia.
Tumors are exposed to visible light (1 cm diameter) at power densities of less than 100 mW/cm^2. The light sources are either a dye laser (with a tunable range of 600 to 800 nm), at the optimal excitation wavelength for the individual photosensitizer; or a pulsed laser with a range of 460 to 800 nm. The treatment will vary, depending on the light dose (J/cm^2) and fluence rate (mW/cm^2) required, but usually is for approximately 30 minutes.
After light exposure, the mice are monitored closely for at least 1 hour and then daily until the re-growing tumors reach no more than 2 cm in the greatest dimension or for a maximum of 60 days (post treatment) at which time they are euthanized. All animals will be euthanized within 90 days of tumor implantation.

[3] = tested on: skin cancer (basal cell carcinoma) early lung cancer and esophageal cancers; test: Phase I human clinical trials of HPPH; type: in vivo
[4] = Skin phototoxicity of the photosensitizers; type: in vivo; conditions: in contrast to most of the clinically approved PS
[5] = patients advised to be away from sunlight at least 6-8 weeks after the light treatment; cited from earlier work
[6] = 5 mg/kg weekly×3 doses, in combination with HPPH or Photobac with PDT, 8/10 mice

CCc1c2c(nc3ccc(OC(=O)N4CCC(N5CCCCC5)CC4)cc13)-c1cc3c(c(=O)n1C2)COC(=O)[C@]3(O)CC [Irinotecan, irinotecan]
CR (complete tumor regression) ([1]; 100 mg/kg weekly×4 doses, in combination with HPPH and PDT, 11/15 mice): 73%
toxicity ([1]; PDT ± chemotherapy, in the used doses): no significant effects
antitumor activity of the alone drug ([1]; drug alone, 100 mg/kg weekly×4 doses, no PDT): not effective
CR (complete tumor regression) ([1]; in combination with Photobac (PDT), 3/5 mice): 60%

CCCCCCOC(C)c1c(C)c2cc3nc(c4c5[nH]c(cc6nc(cc1[nH]2)C(C)=C6CC)c(C)c5C(=O)C4)[C@@H](CCC(=O)O)[C@@H]3C (some centres unmarked) [HPPH, 3-(1′-hexyloxy)ethyl-3-devinylpyropheopphorbide-a]
CR (complete tumor regression) ([2]; PDT with HPPH, without chemotherapy): 20%
effectiveness in treatment of cancer [3]: effective
skin photo toxicity [4]: do not produce any skin photo toxicity

CCCCOC(C)c1c(C)c2cc3nc(c4c5[nH]c(cc6nc(cc1[nH]2)C(C)C6CC)c(C)c5C(=O)N(CCCC)C4=O)C(CCC(=O)OC)C3C (centres unmarked) [Photobac, 3-(1′-butyloxy)ethyl-3-deacetyl-bacteriopurpurin-18-N-butyl-imide methyl ester]
skin photo toxicity [4]: do not produce any skin photo toxicity

N.N.[Cl][Pt][Cl] [Cisplatin, cisplatin]
CR (complete tumor regression) [2, 6]: 80%
antitumor activity of the alone drug ([2]; 5 mg/kg weekly×3 doses): not effective

Photofrin
skin phototoxicity in patients [5]: severe skin phototoxicity

COc1cccc2c1C(=O)c1c(O)c3c(c(O)c1C2=O)C[C@@](O)(C(=O)CO)C[C@@H]3O[C@H]1C[C@H](N)[C@H](O)[C@H](C)O1 [Doxorubicin, doxorubicin]
CR (complete tumor regression) [2, 6]: 80%
antitumor activity of the alone drug ([2]; 5 mg/kg weekly×3 doses): not effective
toxicity ([2]; mouse, in vivo): no significant effects
